Format in all cases: cell-based
One assay deals with Trypanosoma brucei. The assay can be described thus: Anti-trypanosomal activity, inhibition of T. brucei growth (ATP-bioluminescence luciferase assay). The note with it: read-out: IC50 against Trypanosoma brucei. As to the method: The antiparasitic activities of exemplary compounds described here was studied using the anti-trypanosomal activity protocol described in: Rapp M, et al. J Med Chem 2006; 49:2096-102. […] FIG. 1 summarizes the compound inhibition of T. brucei growth. It is seen that compounds of the invention are useful in inhibiting T. brucei growth.
Culturing of Parasites. The bloodstream form of Trypanosoma brucei 427 strain was maintained under the standard cell culture conditions (37° C., 5% CO2). The parasites were grown in complete HMI-9 medium containing 10% FBS, 10% Serum Plus and 1× Penicillin/Streptomycin. (Angew. Chem. Int. Ed. Engl. 2003, 42, 5274-5293).
Luciferase Assay. Luciferase assay was used to measure ATP-bioluminescence in T. brucei cultured in 96-well plates at 37° C. for 48 hours. Parasites were diluted to 1.0×10^5 cells/mL in complete HMI-9 medium. One hundred microliters (100 μL) of the diluted parasites were aliquoted into sterile 96-well flat white opaque culture plates (Greiner). Each compound was serially diluted from 10 μM to 0.1 μM in DMSO and then mixed in the appropriate wells containing parasites. The treated parasites were then incubated for 48 hours at 37° C. with 5% CO2 before monitoring viability. To measure the viability of the parasites after treatment with each compound, the parasites were lysed in the wells by adding 100 μL of CellTiter-Glo™ (Promega). After lysis, the ATP bioluminescence of the 96-well plates was measured with a SpectraFluor Plus multidetection plate reader (Tecan).

The test system of another assay is PKCγ. Briefly: Expression of PKCγ. The note with it: 100, 200, 300 and 500 nM, 24 hours. Here is the method: However, PQ3 has an opposite effect on mammary cancer cell lines. […] A summary of PQ-mediated GJIC activity and colony growth in breast and colon cancer cells is presented in Tables 1, 2, and 3, as well as FIGS. 10-13. In FIG. 10, SW620 cells were dosed for 24 hours with PQ1 at 100, 200, 300, and 500 nM. The gap junction activity was measured as a percent of control, as previously described. It was seen that all concentrations on PQ1 increased the gap junction activity in SW620 colon cancer cells as compared to the control. In FIG. 11, the effect of PQ1 on the expression of PKCγ was studied at concentrations of 100, 200, 300 and 500 nM PQ1 for 24 hours. It is seen in FIG. 11 that PQ1 has no effect on the expression of PKCγ at the levels tested. In FIGS. 12 and 13, the effect of PQ1 on the colony growth of SW620 colon cancer cells was measured with 1-100 nM PQ1 (FIG. 12) and 10 uM PQ1 (FIG. 13).

Assay [1] deals with T47D human breast cancer cells. The assay can be described thus: Soft agar colony growth, T47D cells. The following applies: for effect on breast cancer cell colony growth: Table 2. Here is the method: Base agar plates were prepared containing 0.8% agar and 0.4% agar in Ham's F12. Cells (5×10^4 cells/33 mm^2 well) were suspended in 100 μl of Ham's F12 with 0.4% agar and plated. These plates were maintained at 37° C. for 7 days and examined for the presence of colonies. Individual colonies of 50 μm or greater were examined. T47D cells were treated with 1, 10 and 100 nM PQ1 and SA (succinic acid) as a solvent control. Individual colonies of 50 μm or greater were examined. Statistical significance, *p<0.05, of at least three experiments
FIG. 3(A) MDA-MB-453 and (B) T47D human breast cancer cells were treated with 10 μM of various quinolines for 7 days. Base agar plates were prepared containing 0.8% agar and 0.4% agar in Ham's F12. Cells (5×10^4 cells/33 mm well) were suspended in 100 μl of Ham's F12 with 0.4% agar and plated. These plates were maintained at 37° C. for 7 days and examined for the presence of colonies. Individual colonies of 40 μm or greater were examined. […] However, PQ3 caused a 2.3-fold increase in colony growth in MDA-MB-453 cells and PQ2 caused a 2.6-fold increase in T47D colony growth compared to DMSO. FIGS. 7 and 8 show MDA-MB-453 and T47D colony growth for various concentrations of PQ1 and SA tested for 7 days. The procedures are generally as described above. The cell colony growth decreased using 10 and 100 nM PQ1 for both cell types.
Colony Growth Assay: T47D human breast cancer cells were treated with PQ1. Base agar plates were prepared containing 0.8% agar and 0.4% agar in Ham's F12. Cells (5×10^4 cells/33 mm2 well) were suspended in 100 μl of Ham's F12 with 0.4% agar and plated. These plates were maintained at 37° C. for 7 days and examined for the presence of colonies. Individual colonies of 40 um or greater were examined.
Various oncogenes (e.g. ras, raf, neu, src, mos) down-regulate GJIC while several tumor suppressor genes can up-regulate GJIC. […] Cells were grown in soft agar to assess their capacity for anchorage-independent growth, which is a key feature of cell transformation due to the importance of cell-cell and cell-matrix based tumor suppression. MEC and T47D cells were treated with 10, 100, 1000, and 10000 nM PQ1 for 7 days. A graphical presentation of three experiment results is presented in log scale of PQ1 concentration. […] A 100 nM PQ1 inhibits 66% of colony growth compared to controls, without PQ1 treatment or 100 nM succinic acid.
Colony Growth Using Soft Agar. Cells were treated with 0, 10, 100, 200 and 500 nM PQ1 for 7 days. Base agar plates were prepared containing 0.8% agar and 0.4% agar in Ham's F12. Cells (5×10^4 cells/33 mm^2 well) were suspended in 100 μl of Ham's F12 with 0.4% agar and plated. These plates were maintained at 37° C. for 7 days and examined for the presence of colonies. Individual colonies of 50 μm or greater were examined.

The record followed here is patent publication US8809368B2, “Compounds affecting gap junction activity” (Kansas State University Research Foundation, priority 2006, dated 2014).

Converted amounts (≈) assume the structure as drawn.

As a reminder, the IC50 is the concentration at which inhibition is half-maximal. One may read the inhibition as the percentage by which the read-out fell short of the control. A higher inhibition goes with a response far below the control. In the case of `COc1cc(NCCCN)c2nccc(C)c2c1Oc1cccc(C(F)(F)F)c1.O=C(O)CCC(=O)O` [PQ1, 6-Methoxy-8-[(3-aminopropyl)amino]-4-methyl-5-(3-trifluoromethylphenyloxy) quinoline succinic acid], the IC50 in the assay on Trypanosoma brucei is 0.34 µg/mL. The “expression of PKCγ” value with PKCγ is listed as “no effect”. Also, the colony growth attenuation in assay [1] (10 μM, 7 days, compared to control) was 80-95%. The “colony growth compared to control” value in assay [1] (10, 100, 1000 and 10000 nM, 7 days) is reported as “significant inhibition”. In addition, the cell colony growth result in assay [1] (10 and 100 nM, 7 days) was “decreased”. In assay [1] (Homo sapiens, 168 h, 100 nM, 7 days, compared to controls), this compound gave an inhibition at 0.1 µM of 66%. For the same compound, the “effect on breast cancer cell colony growth” value in assay [1] is “Decrease”.
For the compound `COc1cc(N)c2nccc(C)c2c1Oc1cccc(C(F)(F)F)c1` [PQ3, 8-Amino-6-methoxy-4-methyl-5-(3-trifluoromethylphenyloxy)quinoline], in the assay with Trypanosoma brucei, the IC50 was 1.08 µg/mL (≈ 3.11 µM). Besides, the “effect on colony growth” value in assay [1] (10 μM, 7 days) is “inhibitory effect”. In assay [1], the “effect on breast cancer cell colony growth” value is reported as “Decrease”.
